Source: patent US20090198145A1, “COMPOSITIONS, METHODS, AND SYSTEMS FOR RAPID INDUCTION AND MAINTENANCE OF […] SLEEP” (priority 2008, published 2009)

How the values were obtained:
[1] = tested on: patient with chronic depression and post-traumatic stress disorder
surgical patients = conditions: over 80 patients; GABA-A agonist (e.g., propofol) and adjunctive medications
From the text: This invention describes the discoveries that control, monitor, and administer the hypnotic or sedative agent such as a GABA-A agonist (e.g., propofol) and adjunctive medications at designed dosages, timing, and modes of administration to produce dreams and an unique sleep state of un-fragmented Continuous REM Sleep.

rats = conditions: intravenous, over a 6 hour period; cited from earlier work
[2] = Patient A, same regimen, follow-up

SMILES: CC(C)c1cccc(C(C)C)c1O [propofol, 2-6 diisopropylphenol]
- patient-reported sleep recovery after the procedure ([1]; Patient A, same regimen, Continuous REM Sleep of approximately 1 hour): felt extremely rested
- duration of improved ease of sleeping post-operatively [1, 2]: three
- nightmares on follow-up [1, 2]: lack of nightmares
- dreaming reported during the procedure ([1]; human, in vivo): profuse dreaming about gardening
- achievement of Continuous REM Sleep (surgical patients): achieved Continuous REM Sleep
- replication of natural sleep cycle (rats): replicate a natural sleep cycle
